Measurements from paper PMC9424906 (Frontiers in Pharmacology, 2022).
In brackets after ≈: the same amount, converted by molar mass. Entries after “also recorded” stand apart in the source; their conditions may differ.

Experiments:
OCT1 = conditions: cited from earlier work
[1] = test system: SARS-CoV-2 (2019-nCoV/USA-WAl/2020); assay type: cell-based; conditions: EpiAirway 3D HAE tissue model
[2] = Liver microsomal stability, CD-1 mouse; assay type: in vitro ADME; conditions: liver microsomes, pH 7.4, 0.5 mg/mL
Experimental: Samples were analyzed using UPLC-MS/MS.

[3] = 7-days dose range finding study in dogs; conditions: oral, 2000 mg/kg/day
[4] = test system: EpiAirway human tracheobronchial epithelial tissues
in vitro [5] = assay type: in vitro ADME; conditions: both sexes, human, plasma
Experimental: Plasma protein binding experiments were carried out in mixed-gender human plasma, male Sprague-Dawley rat plasma, male CD-1 plasma, male Beagle dog plasma, and male Cynomolgus monkey plasma (BioIVT) using a Pierce Rapid Equilibration Dialysis (RED) device. […] Blank phosphate-buffered saline (PBS) (500 μL) was added to each corresponding receiver chamber. After 4 h of incubation (with shaking at 37°C), both sides were aliquoted, and matrix was normalized. Samples were centrifuged at 1000 g for 10 min after adding two volumes of ACN with IS. Supernatants were diluted 1:1 with water and analyzed with LC-MS/MS.
Plasma Protein binding was calculated as follows:
% Bound = [(PARR in Donor–PARR in Receiver)/(PARR in Donor)] × 100.
PARR = peak area response ratio to internal standard, including applicable dilution factors.

OATP1B1 = conditions: cited from earlier work
MATE1 = conditions: cited from earlier work
[6] = test system: plateable cryopreserved hepatocytes; assay type: in vitro ADME, mouse, rat, dog, monkey, human
Experimental: Plateable cryopreserved hepatocytes from male CD-1 mouse (Lot# DYF, 81.2% viability), male SD rat (Lot# PMD, 88.1% viability), male Beagle dog (Lot# YTK, 90.0% viability), male Cynomolgus monkey (Lot# GJV, 88.7% viability), and male human (Lot# PDC, 82.9% viability) were purchased from BioIVT (Baltimore, MD). Following vendor’s instructions, the hepatocyte vials were thawed in a 37°C water bath and cells were suspended in 5 mL of corresponding plating media (antibiotic added, rodent media for mouse and rat, dog media for dog, and primate media for monkey and human). The cells were manually counted using Trypan Blue method and were diluted to target concentration (0.35 million/mL for mouse and 0.7 million/mL for other species) with plating media. Diluted cells (500 µL) were then added to Collagen-I coated 24-well plate, distributed evenly, and incubated for 4 h for attaching. Media was changed 4 h prior to compound addition.
After 24 and 48 h, the reaction was stopped by adding 3x volumes of cold acetonitrile to the reaction mixture. Samples were vortexed and centrifuged to precipitate proteins. The supernatants were transferred to clean tubes and dried under a stream of N2 for ∼20 min at ambient temperature to remove most of organic solvent. The remaining liquid was dried by lyophilization. […]

ENT2 = biological target: T1, ENT2 (Homo sapiens, UniProt Q14542); assay: Nucleoside transporter uptake, ENT2-transfected MDCK cells; assay type: in vitro ADME
T1 construct: expressed in transfected cells; host or cells: MDCK-II
Description: Each condition was run in triplicate.

ENT4 = ENT4 (Homo sapiens, UniProt Q7RTT9); assay: Nucleoside transporter uptake, ENT4-transfected MDCK cells
[7] = 7-days dose range finding study in monkeys; conditions: oral, 7 days, 1,000 mg/kg/day
physchem = assay type: physicochemical; conditions: pH 7.4, aqueous buffer, kinetic from dmso stock
Experimental: Kinetic aqueous solubility was determined at NCATS using Pion’s patented µSOL assay as described previously ([Sun et al., 2019]).

BCRP = assay: in vitro; conditions: human, Caco-2, pH 7.4
in vitro [8] = conditions: human, Caco-2, pH 7.4
MDR1 = assay: in vitro; conditions: human, Caco-2, pH 7.4
ENT1 = ENT1 (Homo sapiens, UniProt Q99808); assay: Nucleoside transporter uptake, ENT1-transfected MDCK cells
Chain of ENT1 (Q99808 whole entry): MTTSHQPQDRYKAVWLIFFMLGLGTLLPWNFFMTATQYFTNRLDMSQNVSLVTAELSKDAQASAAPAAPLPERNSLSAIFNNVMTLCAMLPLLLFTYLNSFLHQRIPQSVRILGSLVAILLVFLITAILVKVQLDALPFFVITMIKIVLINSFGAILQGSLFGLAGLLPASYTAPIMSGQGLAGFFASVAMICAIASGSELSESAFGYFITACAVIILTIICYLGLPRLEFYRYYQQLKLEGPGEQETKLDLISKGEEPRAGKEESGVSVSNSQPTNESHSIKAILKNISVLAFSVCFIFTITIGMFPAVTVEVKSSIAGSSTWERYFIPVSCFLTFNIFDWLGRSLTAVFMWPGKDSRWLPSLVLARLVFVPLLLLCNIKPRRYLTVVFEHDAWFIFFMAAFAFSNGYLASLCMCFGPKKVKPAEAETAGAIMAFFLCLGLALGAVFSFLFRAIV

T1 sequence (Q14542 whole entry): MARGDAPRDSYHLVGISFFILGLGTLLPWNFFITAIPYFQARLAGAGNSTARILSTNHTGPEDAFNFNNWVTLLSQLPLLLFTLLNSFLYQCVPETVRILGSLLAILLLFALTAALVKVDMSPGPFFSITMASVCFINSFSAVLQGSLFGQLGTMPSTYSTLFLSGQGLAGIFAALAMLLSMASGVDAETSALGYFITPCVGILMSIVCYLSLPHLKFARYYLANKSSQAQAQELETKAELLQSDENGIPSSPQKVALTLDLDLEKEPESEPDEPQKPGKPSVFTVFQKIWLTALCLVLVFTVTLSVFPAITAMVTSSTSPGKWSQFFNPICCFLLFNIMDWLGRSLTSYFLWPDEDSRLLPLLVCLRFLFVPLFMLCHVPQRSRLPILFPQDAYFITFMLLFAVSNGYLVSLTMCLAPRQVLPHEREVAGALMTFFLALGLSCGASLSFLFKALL
Chain of ENT4 (Q7RTT9 whole entry): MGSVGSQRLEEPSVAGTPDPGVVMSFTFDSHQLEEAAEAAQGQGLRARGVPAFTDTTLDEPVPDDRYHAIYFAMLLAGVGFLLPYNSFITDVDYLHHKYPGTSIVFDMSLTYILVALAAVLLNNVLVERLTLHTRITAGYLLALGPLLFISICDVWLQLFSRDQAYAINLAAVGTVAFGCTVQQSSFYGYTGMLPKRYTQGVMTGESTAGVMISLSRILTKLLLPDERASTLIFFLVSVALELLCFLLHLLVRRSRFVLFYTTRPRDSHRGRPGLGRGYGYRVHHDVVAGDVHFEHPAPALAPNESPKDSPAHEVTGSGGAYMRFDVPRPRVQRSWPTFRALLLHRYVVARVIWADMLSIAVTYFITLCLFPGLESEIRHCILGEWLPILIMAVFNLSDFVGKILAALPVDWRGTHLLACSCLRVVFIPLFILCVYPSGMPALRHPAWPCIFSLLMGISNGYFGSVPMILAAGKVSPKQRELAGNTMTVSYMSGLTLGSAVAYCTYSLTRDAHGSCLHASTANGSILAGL

SMILES: N#C[C@@]1(c2ccc3c(N)ncnn23)O[C@H](CO)[C@@H](O)[C@H]1O [GS-441524]
- Substrate of OCT1 (OCT1): not a substrate
- Potency on viral titer (TCID50) at 24 h ([1]; 24 h): lower potency than EIDD-2801
- Viral titer (TCID50) ([1]; 24 h and 96 h after infection): significantly inhibited the viral infection; also recorded: reduced viral load
- half-life at 1 µM [2]: 1.3 ± 0.05 h
- Tolerability at maximum feasible dose [3]: well tolerated
- Cytotoxicity [4]: did not exhibit any cytotoxicity
- fraction unbound at 4 h, 10 µM (in vitro [5]): ~0.78
- Substrate of OATP1B1 (OATP1B1): not a substrate
- Substrate of MATE1 (MATE1): not a substrate
- Glucuronidation and sulfation metabolites in plateable hepatocytes [6]: detected at trace amount
- Phosphorylated metabolites in plateable hepatocytes [6]: no detectable phosphorylated metabolites
- Substrate of ENT2 (ENT2): substrate
- Inhibition of uptake by reference inhibitor (ENT2; ENT2-transfected cells, 100 µM adenosine): did not inhibit; also recorded: no inhibition was observed
- Difference in uptake compared to control cells (ENT4): less than 2 fold
- Tolerability at maximum feasible dose [7]: well tolerated
- solubility kinetic (physchem): 42 µg/mL (≈ 144 µM)
- Papp A→B at 2 h, 5 µM (BCRP): 0.229 ×10⁻⁶ cm/s
- Papp B→A at 2 h, 5 µM (BCRP): 0.267 ×10⁻⁶ cm/s
- Papp A→B at 2 h, 5 µM (in vitro [8]): 0.099 ×10⁻⁶ cm/s
- Papp B→A at 2 h, 5 µM (in vitro [8]): 0.971 ×10⁻⁶ cm/s
- Papp A→B at 2 h, 5 µM (MDR1): 0.16 ×10⁻⁶ cm/s
- Papp B→A at 2 h, 5 µM (MDR1): 0.79 ×10⁻⁶ cm/s
- Inhibition of uptake by reference inhibitor (ENT1; ENT1-transfected cells, reference inhibitor NBMPR, 30 µM GS-441524): 92.3%
- Substrate of ENT1 (ENT1; MDCK): substrate
